According to patent US4442093A, “Method for administering 24,25-dihydroxycholecalciferol to persons suffering from hypercalcemia” (Kureha Kagaku Kogyo Kabushiki Kaisha, priority 1981, dated 1984):

Key:
[1] = tested on: content of magnesium in serum and bone; assay: Serum and bone magnesium in rats on Vitamin D-deficient diet (Example 16); type: in vivo, male Wistar rats; details: diet TD-81143
Procedure: Forty male Wistar rats in 9th week after birth were divided equally into four groups, and the rats of each group were treated as follows:
The rats of the first group were raised with a normal diet (TD-81144) with daily oral administration of 0.2 ml of MCT (refer to Example 15)/100 g body weight for 5 weeks.
The rats of the second group were raised with a Vitamin D-deficient diet (TD-81143, made by TEKLAD Co., U.S.A., which causes abnormal metabolism of magnesium) with daily oral administration of 0.2 ml of MCT/100 g body weight for 5 weeks.
The rats of the third group were raised with the Vitamin D-deficient diet as in those of the […] with daily oral administration of 1 microgram of 24R,25-(OH)2 -D3 dissolved in 0.2 ml of MCT/100 g body weight for 5 weeks.
The rats of the fourth group were raised with the Vitamin D-deficient diet as in those of the […] with daily oral administration of 10 micrograms of 24R,25-(OH)2 -D3 dissolved in 0.2 ml of MCT/100 g body weight for 5 weeks.
After the final administration was over, all the rats were sacrificed to collect their bones and blood respectively.
Serum specimen was prepared by the ordinary method from the blood specimen, and the bones were washed to remove marrow, lyopholized at -20° C. for 3 days and pulverized in a mortar. After de-ashing 50 mg of the thus pulverized bone with 1 ml of 2 N aqueous hydrochloric solution at room temperature, the insoluble matter was removed by filtration, and the filtrate was subjected to atomic absorption method to find out the content of magnesium in the bone specimen. Magnesium content of the serum specimen was determined by atomic absorption method.

[2] = tested on: content of magnesium in serum; assay: Serum magnesium in rats given puromycin aminonucleoside (Example 15); type: in vivo, male Wistar rats; details: AN 1.5 mg/100 g
Procedure: Forty male Wistar rats in 9th week after birth were divided into four groups, and the rats of each group were treated as follows.
To the rats of the first group were administered subcutaneously physiological saline solution once a day for continuous 12 days at a daily dose of 0.1 ml/100 g body weight with the simultaneous oral administration of triglyceride ester of fatty acid used in Example 1 (abbreviated as MCT) containing 0.1% by weight of ethanol once a day for continuous 12 days at a daily dose of 0.2 ml/100 g body weight followed by oral administration of only MCT once a day for another 3 continuous days at the same daily dose rate.
To the rats of the second group were subcutaneously administered a solution of 1.5 mg of puromycin aminonucleoside (abbreviated hereinafter as AN) in 0.1 ml of physiological saline solution once a day for continuous 12 days at a daily dose rate of 1.5 mg of AN/100 g body weight. The saline solution had been sterilized with a Milipore filter before administration. To the rats were further administered orally MCT in the same manner as in those of the first group. […]
On 15th day after the commencement of the above-mentioned administration, blood specimen was collected from all the rats, and after preparing each specimen of serum from each blood specimen, the content of magnesium in each serum specimen was determined by atomic absorption method. […]

blood sugar = assay: Blood sugar in streptozotocin rats (Example 22); type: in vivo, male Wistar rats; details: 10 µg/kg/day p.o., 4 weeks, streptozotocin i.p.
Procedure: Among the male Wistar rats in 6th week after birth to which 60 mg of streptozotocin/kg body weight was intraperitoneally administered, those in which positive urine sugar was confirmed after one week of the administration, reduction of both urine sugar and blood sugar was shown by the administration of regular insulin and a state of hyper urine sugar and hyper blood sugar was confirmed after a few days of the administration of regular insulin. The confirmed rats were used as the model animals of glycosuria in the following tests. As control, the male Wistar rats intraperitoneally administered with aqueous physiological saline solution instead of streptozotocin were used. These rats were fed with an ordinary solid diet (CE-2, prepared by Nippon Crea Co., Ltd.)
The model animals were divided into two groups each consisting of 12 animals, and to the rats of the first group (according to the present invention), 24R,25-(OH)2 -D3 was forcibly administered p.o. in a state of solution in MCT (triglyceride of C8 and C10 -fatty acid) containing 0.2% by weight of ethanol once a day, 5 to 6 times a week for continuous 4 weeks at a daily dose rate of 10 micrograms/kg body weight. To the rats of the second group, only the same amount of MCT containing 0.2% by weight of ethanol as above was forcibly p.o. administered in the same manner as in the first group. […]

calcium level in serum = assay: Serum calcium in normal fasted rats (Example 2); type: in vivo, male Wistar-rats
Procedure: Four subgroups of male Wistar-rats (a subgroup consisting of 5 animals) were used as the test animals, and they were fasted one whole day before the test.
To the rats of the first group consisting of 2 subgroups, a solution of 24R,25-(OH)2 -D3 in the triglyceride ester used in Example 1 was orally administered once at a dose rate of 100 micrograms of the agent/kg body weight.
To the rats of the second group consisting of 2 subgroups, only the triglyceride used in Example 1 was administered orally, and while using them as control, the calcium level in their serum was determined as in the first group.

Q: `C=C1CC[C@H](O)C/C1=C/C=C1\CCC[C@]2(C)[C@@H]([C@H](C)CC[C@@H](O)C(C)(C)O)CC[C@@H]12` [24R,25-(OH)2 -D3] was tested. Which “Content of magnesium in bone” value ([1]; 1 µg/100 g/day oral 5 weeks) did it give?
A: 0.395 ± 0.021%

Q: What about the “Content of magnesium in serum” value ([1]; 1 µg/100 g/day oral 5 weeks) of the same compound?
A: 4.0 ± 0.3 mg/dL

Q: And the “Content of magnesium in bone” value ([1]; 10 µg/100 g/day oral 5 weeks)?
A: 0.396 ± 0.016%

Q: What about the “Content of magnesium in serum” value ([1]; 10 µg/100 g/day oral 5 weeks) of the same compound?
A: 3.6 ± 0.3 mg/dL

Q: What about the Mg in serum ([2]; 3rd group, dose 1 per 100 g b.w. oral 12 days) of the same compound?
A: 4.5 ± 0.32 mg/dL

Q: And the Mg in serum ([2]; 4th group, dose 10 per 100 g b.w. oral 12 days)?
A: 4.3 ± 0.30 mg/dL

Q: What about the Blood sugar (blood sugar) of the same compound?
A: 208 ± 42 mg/dL

Q: What about the “Calcium level in serum” value (calcium level in serum; 2 h after 100 µg/kg oral) of the same compound?
A: 10.6 ± 0.3 mg/dL

Q: And the “Calcium level in serum” value (calcium level in serum; 5 h after 100 µg/kg oral)?
A: 10.5 ± 0.3 mg/dL
